# Patent US8680058B2, “Selectively targeted antimicrobial peptides and the use thereof” (priority 2006, dated 2014)
# No end group written: not given here.
# Legend:
# [1] = tested on: S. mutans JM11 within a multi-species biofilm; test: Multi-species biofilm in saliva, luciferase readout of S. mutans JM11; type: cell-based, Streptococcus mutans; settings: 25 μM in saliva, 5 min exposure
# Description: 1.6 Evaluation of antimicrobial activity against bacterial biofilm in saliva. For these experiments, we employed methods similar to those previously described (Bleher et al., 2003). A day prior to the assay, saliva was collected and pooled from 5 adult volunteers in the laboratory, diluted 1:4 in TH broth and centrifuged 2,000×g for 10 min. The supernatant was then filter sterilized (0.2 μm filter, Nunc) and stored at 4° C. A portion of pooled saliva was also diluted 1:2 in 1×PBS and processed as before. On the day of the assay, overnight cultures of JM11 and other oral streptococci were normalized to OD600 1.0 and ˜3×10^6 cfu/mL of each species was added to 10 mL of the TH-diluted saliva. […] At each time point, total biofilm growth was measured by reading absorbance at OD600, and the health of S. mutans within the population examined by relative luciferase expression (relative light unit, (RLU) production), as described previously (Merritt et al., 2005). […] RLU production was measured using a TD 20/20 luminometer (Turner Biosystems) and reported values were obtained from the average of 3 independent samples. […]
# 1.9 C16G2 can selectively eliminate S. mutans from a mixed species biofilm. […] The mixed-species biofilms were formed with saliva, and then peptides (25 μM) suspended in saliva were added for 5 min and removed, and the post-treatment growth of the biofilm was further monitored. […]
# [2] = tested on: S. mutans biofilms; test: Single-species biofilm regrowth after peptide exposure, S. mutans; type: cell-based, Streptococcus mutans; settings: 25 μM peptide, 1 min exposure
# Description: 1.5 Examination of antimicrobial activity against single-species biofilms. To initiate biofilm formation, ˜1×10^7 bacteria per well (from overnight cultures) were seeded in TH medium (100 μL) to a 96-well flat-bottom plate. For all streptococci except S. mutans, the medium was supplemented with 0.5% (w/v) mannose and glucose. S. mutans UA159 biofilms were grown with 0.5% (w/v) sucrose. Plates were then centrifuged briefly to pellet the cells, and bacteria were incubated for 3-4 hours at 37° C. for biofilm formation. After incubation, the supernatant was carefully removed and biofilms were treated with 25 μM peptide in 1×PBS or 1×PBS alone for 1 min. The peptide solution was then removed and 100 μL TH was added to further dilute any remaining peptide. To minimize biofilm loss, cells were briefly centrifuged after TH addition, after which the supernatants were removed and fresh medium plus appropriate sugars were returned. Cells were then incubated anaerobically at 37° C. and biofilm growth was monitored over time by measuring absorbance at OD600 with a microplate spectrophotometer (Benchmark Plus, BioRad).
substance,measurement,setting,value
TFFRLFNRSFTQALGKGGGKNLRIIRKGIHIIKKY-NH2 [Peptide C16G2],"S. mutans population within mixed-species biofilm (luciferase activity, RLU/OD600)",[1],dramatically reduce the S. mutans population
same,duration of selective inhibition of S. mutans growth within multi-species biofilm,[1],≥ 2 h
same,biofilm re-growth after treatment (OD600),[2],severely inhibited
